Legend:
[1] = tested on: thermostable luciferase (Luc 146-1H2); experiment: Thermostable luciferase reaction with luciferin derivatives: light readings; type: biochemical
Method: (§1) This stock was used to produce enzyme stock solution having of 200 µg/ml enzyme solution in 1 mg/ml BSA, 200 mM HEPES buffer, pH 8.0, 20 mM MgCl2.
(§2) Solutions were made using a 1 M DTT solution, pH adjusted to 8.0, a 20 mM Coenzyme A solution in water (both described in examples above), a 100 mM ATP solution and water to create the following solutions: Sol'A, 100 µM ATP; Sol'B, 100 µM ATP, 4 mM Coenzyme A; Sol'n C, 100 µM ATP, 400 mM DTT, and; Sol'n D, 100 µM ATP, 4 mM Coenzyme A and 400 mM DTT.
The following reactions were prepared (Table 47) Table 47
(§3) After assembly, the reactions were initiated by addition of 25 µl of the thermostable luciferase stock solution above and mixing the tube contents. A 50 µl sample was immediately removed and placed in a luminometer tube and the light read and the tube then replaced in a tube rack at room temperature. While the light reading was being taken, a 5 µl sample of the remaining reaction (which was kept at room temperature) was diluted into 495 µl of 50 mM BisTris, pH 6.5, 1 mg/ml BSA, 1 mM EDTA prechilled to 4°C and the tube mixed and placed on ice. The light produced by the samples in the luminometer tubes were re-read at 20, 40, 60, 90 and 120 minutes post enzyme addition. Additional 5 µl samples were taken and diluted as above at 60 and 120 minutes post enzyme addition. Once all these readings and samples were taken, 50 µl of the diluted samples was mixed with 50 µl of Steady Glo in luminometer tubes, the tubes incubated 10 minutes on ice then the light produced was read on a Turner TD 20/20 luminometer.

[2] = tested on: thermostable luciferase (Luc 146-1H2); experiment: Residual thermostable luciferase activity after reaction with luciferin derivatives (Steady Glo); type: biochemical
Method: as §1, §2, §3

O=C(O)[C@H]1CSC(c2nc3ccc(OCCCl)cc3s2)=N1 [L'in-CEE]
light readings from the reaction samples ([1]; substrate 6.25 (L'in-BE: 6.26), + Co A & DTT, Time 0 min): 77.35 | light readings from the reaction samples ([1]; substrate 6.25 (L'in-BE: 6.26), + Co A & DTT, Time 20 min): 7.958 | light readings from the reaction samples ([1]; substrate 6.25 (L'in-BE: 6.26), + Co A & DTT, Time 40 min): 3.656 | light readings from the reaction samples ([1]; substrate 6.25 (L'in-BE: 6.26), + Co A & DTT, Time 60 min): 2.312 | light readings from the reaction samples ([1]; substrate 6.25 (L'in-BE: 6.26), + Co A & DTT, Time 90 min): 1.414 | light readings from the reaction samples ([1]; substrate 6.25 (L'in-BE: 6.26), + Co A & DTT, Time 120 min): 1.134 | light readings from the reaction samples ([1]; substrate 6.25 (L'in-BE: 6.26), + Co A, Time 0 min): 1829 | light readings from the reaction samples ([1]; substrate 6.25 (L'in-BE: 6.26), + Co A, Time 20 min): 114 | light readings from the reaction samples ([1]; substrate 6.25 (L'in-BE: 6.26), + Co A, Time 40 min): 57.82 | light readings from the reaction samples ([1]; substrate 6.25 (L'in-BE: 6.26), + Co A, Time 60 min): 37.53 | light readings from the reaction samples ([1]; substrate 6.25 (L'in-BE: 6.26), + Co A, Time 90 min): 24.66 | light readings from the reaction samples ([1]; substrate 6.25 (L'in-BE: 6.26), + Co A, Time 120 min): 17.02 | light readings from the reaction samples ([1]; substrate 6.25 (L'in-BE: 6.26), + DTT, Time 0 min): 72.52 | light readings from the reaction samples ([1]; substrate 6.25 (L'in-BE: 6.26), + DTT, Time 20 min): 5.903 | light readings from the reaction samples ([1]; substrate 6.25 (L'in-BE: 6.26), + DTT, Time 40 min): 3.073 | light readings from the reaction samples ([1]; substrate 6.25 (L'in-BE: 6.26), + DTT, Time 60 min): 2.089 | light readings from the reaction samples ([1]; substrate 6.25 (L'in-BE: 6.26), + DTT, Time 90 min): 1.431 | light readings from the reaction samples ([1]; substrate 6.25 (L'in-BE: 6.26), + DTT, Time 120 min): 1.125 | light readings from the reaction samples ([1]; substrate 6.25 (L'in-BE: 6.26), Alone, Time 0 min): 121 | light readings from the reaction samples ([1]; substrate 6.25 (L'in-BE: 6.26), Alone, Time 20 min): 5.884 | light readings from the reaction samples ([1]; substrate 6.25 (L'in-BE: 6.26), Alone, Time 40 min): 3.316 | light readings from the reaction samples ([1]; substrate 6.25 (L'in-BE: 6.26), Alone, Time 60 min): 2.352 | light readings from the reaction samples ([1]; substrate 6.25 (L'in-BE: 6.26), Alone, Time 90 min): 1.569 | light readings from the reaction samples ([1]; substrate 6.25 (L'in-BE: 6.26), Alone, Time 120 min): 1.154 | light readings from the reaction samples ([1]; substrate 25, + Co A & DTT, Time 0 min): 57.98 | light readings from the reaction samples ([1]; substrate 25, + Co A & DTT, Time 20 min): 5.721 | light readings from the reaction samples ([1]; substrate 25, + Co A & DTT, Time 40 min): 3.272 | light readings from the reaction samples ([1]; substrate 25, + Co A & DTT, Time 60 min): 2.192 | light readings from the reaction samples ([1]; substrate 25, + Co A & DTT, Time 90 min): 1.379 | light readings from the reaction samples ([1]; substrate 25, + Co A & DTT, Time 120 min): 1.174 | light readings from the reaction samples ([1]; substrate 25, + Co A, Time 0 min): 489.2 | light readings from the reaction samples ([1]; substrate 25, + Co A, Time 20 min): 45.45 | light readings from the reaction samples ([1]; substrate 25, + Co A, Time 40 min): 25.08 | light readings from the reaction samples ([1]; substrate 25, + Co A, Time 60 min): 16.96 | light readings from the reaction samples ([1]; substrate 25, + Co A, Time 90 min): 11.03 | light readings from the reaction samples ([1]; substrate 25, + Co A, Time 120 min): 7.309 | light readings from the reaction samples ([1]; substrate 25, + DTT, Time 0 min): 56.59 | light readings from the reaction samples ([1]; substrate 25, + DTT, Time 20 min): 3.761 | light readings from the reaction samples ([1]; substrate 25, + DTT, Time 40 min): 2.196 | light readings from the reaction samples ([1]; substrate 25, + DTT, Time 60 min): 1.668 | light readings from the reaction samples ([1]; substrate 25, + DTT, Time 90 min): 1.274 | light readings from the reaction samples ([1]; substrate 25, + DTT, Time 120 min): 1.157 | light readings from the reaction samples ([1]; substrate 25, Alone, Time 0 min): 59.87 | light readings from the reaction samples ([1]; substrate 25, Alone, Time 20 min): 3.176 | light readings from the reaction samples ([1]; substrate 25, Alone, Time 40 min): 1.919 | light readings from the reaction samples ([1]; substrate 25, Alone, Time 60 min): 1.305 | light readings from the reaction samples ([1]; substrate 25, Alone, Time 90 min): 1.178 | light readings from the reaction samples ([1]; substrate 25, Alone, Time 120 min): 1.03 | light readings from the reaction samples ([1]; substrate 100, + Co A & DTT, Time 0 min): 25.41 | light readings from the reaction samples ([1]; substrate 100, + Co A & DTT, Time 20 min): 3.278 | light readings from the reaction samples ([1]; substrate 100, + Co A & DTT, Time 40 min): 2.027 | light readings from the reaction samples ([1]; substrate 100, + Co A & DTT, Time 60 min): 1.666 | light readings from the reaction samples ([1]; substrate 100, + Co A & DTT, Time 90 min): 1.27 | light readings from the reaction samples ([1]; substrate 100, + Co A & DTT, Time 120 min): 1.157 | light readings from the reaction samples ([1]; substrate 100, + Co A, Time 0 min): 97.88 | light readings from the reaction samples ([1]; substrate 100, + Co A, Time 20 min): 10.3 | light readings from the reaction samples ([1]; substrate 100, + Co A, Time 40 min): 7.127 | light readings from the reaction samples ([1]; substrate 100, + Co A, Time 60 min): 5.562 | light readings from the reaction samples ([1]; substrate 100, + Co A, Time 90 min): 3.969 | light readings from the reaction samples ([1]; substrate 100, + Co A, Time 120 min): 2.845 | light readings from the reaction samples ([1]; substrate 100, + DTT, Time 0 min): 22.47 | light readings from the reaction samples ([1]; substrate 100, + DTT, Time 20 min): 2.233 | light readings from the reaction samples ([1]; substrate 100, + DTT, Time 40 min): 1.292 | light readings from the reaction samples ([1]; substrate 100, + DTT, Time 60 min): 1.164 | light readings from the reaction samples ([1]; substrate 100, + DTT, Time 90 min): 1.093 | light readings from the reaction samples ([1]; substrate 100, + DTT, Time 120 min): 0.958 | light readings from the reaction samples ([1]; substrate 100, Alone, Time 0 min): 20.46 | light readings from the reaction samples ([1]; substrate 100, Alone, Time 20 min): 1.18 | light readings from the reaction samples ([1]; substrate 100, Alone, Time 40 min): 0.868 | light readings from the reaction samples ([1]; substrate 100, Alone, Time 60 min): 0.788 | light readings from the reaction samples ([1]; substrate 100, Alone, Time 90 min): 0.627 | light readings from the reaction samples ([1]; substrate 100, Alone, Time 120 min): 0.544 | light values obtained upon addition of the diluted reaction samples into Steady Glo reagent ([2]; Substrate 6.25, + Co A & DTT, Time Sample Taken 0 min): 1836 | light values obtained upon addition of the diluted reaction samples into Steady Glo reagent ([2]; Substrate 6.25, + Co A & DTT, Time Sample Taken 60 min): 1625 | light values obtained upon addition of the diluted reaction samples into Steady Glo reagent ([2]; Substrate 6.25, + Co A & DTT, Time Sample Taken 120 min): 1622 | light values obtained upon addition of the diluted reaction samples into Steady Glo reagent ([2]; Substrate 6.25, + Co A, Time Sample Taken 0 min): 1647 | light values obtained upon addition of the diluted reaction samples into Steady Glo reagent ([2]; Substrate 6.25, + Co A, Time Sample Taken 60 min): 976.8 | light values obtained upon addition of the diluted reaction samples into Steady Glo reagent ([2]; Substrate 6.25, + Co A, Time Sample Taken 120 min): 921.4 | light values obtained upon addition of the diluted reaction samples into Steady Glo reagent ([2]; Substrate 6.25, + DTT, Time Sample Taken 0 min): 1631 | light values obtained upon addition of the diluted reaction samples into Steady Glo reagent ([2]; Substrate 6.25, + DTT, Time Sample Taken 60 min): 1544 | light values obtained upon addition of the diluted reaction samples into Steady Glo reagent ([2]; Substrate 6.25, + DTT, Time Sample Taken 120 min): 1695 | light values obtained upon addition of the diluted reaction samples into Steady Glo reagent ([2]; Substrate 6.25, Alone, Time Sample Taken 0 min): 1402 | light values obtained upon addition of the diluted reaction samples into Steady Glo reagent ([2]; Substrate 6.25, Alone, Time Sample Taken 60 min): 1158 | light values obtained upon addition of the diluted reaction samples into Steady Glo reagent ([2]; Substrate 6.25, Alone, Time Sample Taken 120 min): 1073 | light values obtained upon addition of the diluted reaction samples into Steady Glo reagent ([2]; Substrate 25, + Co A & DTT, Time Sample Taken 0 min): 529.6 | light values obtained upon addition of the diluted reaction samples into Steady Glo reagent ([2]; Substrate 25, + Co A & DTT, Time Sample Taken 60 min): 1268 | light values obtained upon addition of the diluted reaction samples into Steady Glo reagent ([2]; Substrate 25, + Co A & DTT, Time Sample Taken 120 min): 1329 | light values obtained upon addition of the diluted reaction samples into Steady Glo reagent ([2]; Substrate 25, + Co A, Time Sample Taken 0 min): 1547 | light values obtained upon addition of the diluted reaction samples into Steady Glo reagent ([2]; Substrate 25, + Co A, Time Sample Taken 60 min): 777.5 | light values obtained upon addition of the diluted reaction samples into Steady Glo reagent ([2]; Substrate 25, + Co A, Time Sample Taken 120 min): 588.7 | light values obtained upon addition of the diluted reaction samples into Steady Glo reagent ([2]; Substrate 25, + DTT, Time Sample Taken 0 min): 1116 | light values obtained upon addition of the diluted reaction samples into Steady Glo reagent ([2]; Substrate 25, + DTT, Time Sample Taken 60 min): 1372 | light values obtained upon addition of the diluted reaction samples into Steady Glo reagent ([2]; Substrate 25, + DTT, Time Sample Taken 120 min): 1393 | light values obtained upon addition of the diluted reaction samples into Steady Glo reagent ([2]; Substrate 25, Alone, Time Sample Taken 0 min): 1345 | light values obtained upon addition of the diluted reaction samples into Steady Glo reagent ([2]; Substrate 25, Alone, Time Sample Taken 60 min): 973.4 | light values obtained upon addition of the diluted reaction samples into Steady Glo reagent ([2]; Substrate 25, Alone, Time Sample Taken 120 min): 860.3
